Measurements taken from article PMC11277489, “Novel Piperazine Derivatives of Vindoline as Anticancer Agents” (International Journal of Molecular Sciences, 2024).

Assays:
[1] = test system: OVCAR-8; assay: NCI60 one-dose screen (10 μM), Ovarian Cancer; format: cell-based; conditions: Homo sapiens, OVCAR-8, read-out: Growth percent rate
[2] = test system: SN12C; assay: NCI60 one-dose screen (10 μM), Renal Cancer; format: cell-based; conditions: Homo sapiens, read-out: Growth percent rate
[3] = test system: SK-MEL-2; assay: NCI60 one-dose screen (10 μM), Melanoma; format: cell-based; conditions: Homo sapiens, SK-MEL-2, read-out: Growth percent rate
[4] = test system: A498; assay: NCI60 one-dose screen (10 μM), Renal Cancer; format: cell-based; conditions: Homo sapiens, A498, read-out: Growth percent rate
[5] = test system: HCT-15; assay: NCI60 one-dose screen (10 μM), Colon Cancer; format: cell-based; conditions: Homo sapiens, HCT-15, read-out: Growth percent rate
[6] = test system: UACC-257; assay: NCI60 one-dose screen (10 μM), Melanoma; format: cell-based; conditions: Homo sapiens, UACC-257, read-out: Growth percent rate
[7] = test system: SK-MEL-5; assay: NCI60 one-dose screen (10 μM), Melanoma; format: cell-based, human; conditions: Homo sapiens, SK-MEL-5, read-out: Growth percent rate
[8] = test system: K-562; assay: NCI60 one-dose screen (10 μM), Leukemia; format: cell-based; conditions: Homo sapiens, K562, read-out: Growth percent rate
[9] = test system: M14; assay: NCI60 one-dose screen (10 μM), Melanoma; format: cell-based; conditions: Homo sapiens, M14, read-out: Growth percent rate
[10] = test system: HOP-62; assay: NCI60 one-dose screen (10 μM), Non-small Cell Lung Cancer; format: cell-based; conditions: Homo sapiens, HOP-62, read-out: Growth percent rate
[11] = test system: MDA-MB-435; assay: NCI60 one-dose screen (10 μM), Melanoma; format: cell-based; conditions: Homo sapiens, MDA-MB-435, read-out: Growth percent rate
[12] = test system: NCI-H522; assay: NCI60 one-dose screen (10 μM), Non-small Cell Lung Cancer; format: cell-based; conditions: Homo sapiens, NCI-H522, read-out: Growth percent rate
[13] = test system: CAKI-1; assay: NCI60 one-dose screen (10 μM), Renal Cancer; format: cell-based; conditions: Homo sapiens, CAKI-1, read-out: Growth percent rate
[14] = test system: SW-620; assay: NCI60 one-dose screen (10 μM), Colon Cancer; format: cell-based; conditions: Homo sapiens, SW-620, read-out: Growth percent rate
[15] = test system: RXF 393; assay: NCI60 one-dose screen (10 μM), Renal Cancer; format: cell-based, human; conditions: Homo sapiens, RXF 393, read-out: Growth percent rate
[16] = test system: HS 578T; assay: NCI60 one-dose screen (10 μM), Breast Cancer; format: cell-based; conditions: Homo sapiens, Hs-578T, read-out: Growth percent rate
[17] = test system: 60 human tumor cell lines (NCI60); assay: NCI60 one-dose screen (10 μM), whole panel; format: cell-based
[18] = test system: COLO 205; assay: NCI60 one-dose screen (10 μM), Colon Cancer; format: cell-based, human; conditions: Homo sapiens, COLO 205, read-out: Growth percent rate
[19] = test system: SNB-75; assay: NCI60 one-dose screen (10 μM), CNS Cancer; format: cell-based, human; conditions: Homo sapiens, SNB-75, read-out: Growth percent rate
[20] = test system: NCI-H460; assay: NCI60 one-dose screen (10 μM), Non-small Cell Lung Cancer; format: cell-based; conditions: Homo sapiens, NCI-H460, read-out: Growth percent rate
[21] = test system: SF-268; assay: NCI60 one-dose screen (10 μM), CNS Cancer; format: cell-based; conditions: Homo sapiens, SF-268, read-out: Growth percent rate
[22] = test system: A549/ATCC; assay: NCI60 one-dose screen (10 μM), Non-small Cell Lung Cancer; format: cell-based; conditions: Homo sapiens, A549, read-out: Growth percent rate
[23] = test system: NCI-H322M; assay: as above; format: cell-based; conditions: Homo sapiens, read-out: Growth percent rate
[24] = test system: 786–0; assay: NCI60 one-dose screen (10 μM), Renal Cancer; format: cell-based; conditions: Homo sapiens, 786-0, read-out: Growth percent rate
[25] = test system: HT29; assay: NCI60 one-dose screen (10 μM), Colon Cancer; format: cell-based; conditions: Homo sapiens, HT-29, read-out: Growth percent rate
[26] = test system: HCT-116; assay: NCI60 one-dose screen (10 μM), Colon Cancer; format: cell-based; conditions: Homo sapiens, HCT-116, read-out: Growth percent rate
[27] = test system: HCC-2998; assay: NCI60 one-dose screen (10 μM), Colon Cancer; format: cell-based; conditions: Homo sapiens, HCC 2998, read-out: Growth percent rate
[28] = test system: MOLT-4; assay: NCI60 one-dose screen (10 μM), Leukemia; format: cell-based, human; conditions: Homo sapiens, MOLT-4, read-out: Growth percent rate
[29] = test system: OVCAR-3; assay: NCI60 one-dose screen (10 μM), Ovarian Cancer; format: cell-based; conditions: Homo sapiens, OVCAR-3, read-out: Growth percent rate
[30] = test system: DU-145; assay: NCI60 one-dose screen (10 μM), Prostate Cancer; format: cell-based; conditions: Homo sapiens, DU-145, read-out: Growth percent rate
[31] = test system: HL-60(TB); assay: NCI60 one-dose screen (10 μM), Leukemia; format: cell-based; conditions: Homo sapiens, HL-60, read-out: Growth percent rate
[32] = test system: IGROV1; assay: NCI60 one-dose screen (10 μM), Ovarian Cancer; format: cell-based; conditions: Homo sapiens, IGROV-1, read-out: Growth percent rate
[33] = test system: ACHN; assay: NCI60 one-dose screen (10 μM), Renal Cancer; format: cell-based; conditions: Homo sapiens, read-out: Growth percent rate
[34] = test system: SF-539; assay: NCI60 one-dose screen (10 μM), CNS Cancer; format: cell-based, human; conditions: Homo sapiens, SF-539, read-out: Growth percent rate
[35] = test system: MCF7; assay: NCI60 one-dose screen (10 μM), Breast Cancer; format: cell-based; conditions: Homo sapiens, MCF7, read-out: Growth percent rate
[36] = test system: OVCAR-4; assay: NCI60 one-dose screen (10 μM), Ovarian Cancer; format: cell-based; conditions: Homo sapiens, OVCAR-4, read-out: Growth percent rate
[37] = test system: U251; assay: NCI60 one-dose screen (10 μM), CNS Cancer; format: cell-based; conditions: Homo sapiens, U-251, read-out: Growth percent rate
[38] = test system: CCRF-CEM; assay: NCI60 one-dose screen (10 μM), Leukemia; format: cell-based; conditions: Homo sapiens, read-out: Growth percent rate
[39] = test system: NCI-H23; assay: NCI60 one-dose screen (10 μM), Non-small Cell Lung Cancer; format: cell-based; conditions: Homo sapiens, NCI-H23, read-out: Growth percent rate
[40] = test system: SK-MEL-28; assay: NCI60 one-dose screen (10 μM), Melanoma; format: cell-based; conditions: Homo sapiens, SK-MEL-28, read-out: Growth percent rate
[41] = test system: RPMI-8226; assay: NCI60 one-dose screen (10 μM), Leukemia; format: cell-based; conditions: Homo sapiens, RPMI-8226, read-out: Growth percent rate
[42] = test system: EKVX; assay: NCI60 one-dose screen (10 μM), Non-small Cell Lung Cancer; format: cell-based; conditions: Homo sapiens, read-out: Growth percent rate

CC[C@]12C=CCN3CC[C@@]4(c5ccc(OC)cc5N(C)[C@H]4[C@@](O)(C(=O)OC)[C@@H]1OC(=O)CCCN1CCN(C(c4ccc(F)cc4)c4ccc(F)cc4)CC1)[C@@H]32 [Compound 25]
activity at 10 µM [1]: -69.3% | activity at 10 µM [2]: -95% | activity at 10 µM [3]: -89.5% | activity at 10 µM [4]: -97.2% | activity at 10 µM [5]: -96.6% | activity at 10 µM [6]: -78.2% | activity at 10 µM [7]: -99.6% | activity at 10 µM [8]: -1.7% | activity at 10 µM [9]: -94.8% | activity at 10 µM [10]: -77.2% | activity at 10 µM [11]: -78.7% | activity at 10 µM [12]: -88.2% | activity at 10 µM [13]: -86.2% | activity at 10 µM [14]: -78.5% | activity at 10 µM [15]: -94.5% | activity at 10 µM [16]: -60% | growth rate ([17]; 10 μM one-dose, on almost all tested cancer types and cell lines, negative = lethality): < −60% | activity at 10 µM ([17]; Homo sapiens, read-out: Growth percent rate, Mean): -79.9% | activity at 10 µM [18]: -78.5% | activity at 10 µM [19]: -86.4% | activity at 10 µM [20]: -70.4% | activity at 10 µM [21]: -81.9% | activity at 10 µM [22]: -65.4% | activity at 10 µM [23]: -71.7% | activity at 10 µM [24]: -96.4% | activity at 10 µM [25]: -83.9% | activity at 10 µM [26]: -98.6% | activity at 10 µM [27]: -97.2% | activity at 10 µM [28]: -31.9% | activity at 10 µM [29]: -83% | activity at 10 µM [30]: -94.4% | activity at 10 µM [31]: -56.2% | activity at 10 µM [32]: -77% | activity at 10 µM [33]: -69.4% | activity at 10 µM [34]: -98.5% | activity at 10 µM [35]: -88.2% | activity at 10 µM [36]: -41.5% | activity at 10 µM [37]: -79% | activity at 10 µM [38]: -29.5% | activity at 10 µM [39]: -92.7% | activity at 10 µM [40]: -96.5% | activity at 10 µM [41]: -50.1% | activity at 10 µM [42]: -89.8%
